Measurements from patent US8853232B2, “Peripheral opioid receptor antagonists and uses thereof” (Progenics Pharmaceuticals, Inc., priority 2007, dated 2014).

Tests used:
[1] = target: μ-opioid receptors in the guinea pig ileum (Cavia porcellus, UniProt A0ACM8Q262); experiment: Functional activity: inhibition of DAMGO-induced decrease of twitch contraction amplitude in guinea pig ileum; assay type: cell-based; conditions: read-out: IC50 Value (concentration causing a half-maximal inhibition of DAMGO-induced decrease of twitch contraction amplitude)
Chain of μ-opioid receptors in the guinea pig ileum (A0ACM8Q262 1-400): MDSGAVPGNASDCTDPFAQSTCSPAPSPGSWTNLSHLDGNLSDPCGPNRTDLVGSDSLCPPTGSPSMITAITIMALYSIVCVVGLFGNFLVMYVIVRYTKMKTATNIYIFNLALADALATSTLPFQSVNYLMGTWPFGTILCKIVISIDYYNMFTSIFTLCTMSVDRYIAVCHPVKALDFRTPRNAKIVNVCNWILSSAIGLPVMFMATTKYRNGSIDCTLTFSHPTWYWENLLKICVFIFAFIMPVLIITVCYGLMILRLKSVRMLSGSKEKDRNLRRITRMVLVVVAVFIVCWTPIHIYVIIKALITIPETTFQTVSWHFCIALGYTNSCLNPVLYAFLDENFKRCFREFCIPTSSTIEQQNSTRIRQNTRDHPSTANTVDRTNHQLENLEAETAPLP
Protocol: The IC50 values (concentration causing a half-maximal inhibition of DAMGO-induced decrease of twitch contraction amplitude) were determined by non-linear regression analysis of the dose-response curves.
Results are expressed as a concentration causing a half-maximal inhibition of DAMGO-induced decrease of twitch contraction amplitude of guinea-pig ileum in the presence of compounds 6-alpha-methylnaltrexol, 6-beta-methylnaltrexol and 3-sulfo-methylnaltrexone.

[2] = target: human mu opioid receptor (Homo sapiens, UniProt P35372); experiment: Radioligand competition binding at the human mu opioid receptor; conditions: for nH (Hill coefficient): human mu opioid receptor, competition curves
Chain of human mu opioid receptor (P35372 whole entry): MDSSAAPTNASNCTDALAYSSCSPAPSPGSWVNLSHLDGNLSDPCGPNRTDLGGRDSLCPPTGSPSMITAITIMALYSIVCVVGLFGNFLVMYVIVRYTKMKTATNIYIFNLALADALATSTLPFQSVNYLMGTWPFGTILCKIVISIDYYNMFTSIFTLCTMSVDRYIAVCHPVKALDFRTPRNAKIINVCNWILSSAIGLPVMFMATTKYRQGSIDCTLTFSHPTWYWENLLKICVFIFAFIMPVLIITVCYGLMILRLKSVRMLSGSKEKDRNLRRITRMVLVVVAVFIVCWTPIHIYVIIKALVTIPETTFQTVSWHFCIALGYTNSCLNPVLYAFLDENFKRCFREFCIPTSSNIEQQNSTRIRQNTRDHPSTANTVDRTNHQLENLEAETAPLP
Protocol: Compounds of the invention were assayed for activity at the human mu opioid receptor by methods substantially similar to those described in Zhang, et al., (1998) “Dynorphin A as a potential endogenous ligand for four members of the opioid receptor gene family.” J. Pharmacol. Exp. Ther., 286: 136-141.
IC50 values (concentration causing a half-maximal inhibition of control specific binding) and Hill coefficients (nH) were determined by non-linear regression analysis of the competition curves using Hill equation curve fitting.
Inhibition constants (Ki) were calculated from the Cheng Prusoff equation: (Ki=IC50/(1+(L/KD)), where L=concentration of radioligand in the assay, and KD=affinity of the radioligand for the receptor).
Results are expressed as a percent of control specific binding obtained in the presence of compounds 6-alpha-methylnaltrexol, 6-beta-methylnaltrexol and 3-sulfo-methylnaltrexone.

Row | Structure (SMILES) | IC50 [1] | IC50 [2] | Ki [2] | nH (Hill coefficient) [2]
1 | C[N+]1(CC2CC2)CC[C@]23c4c5ccc(O)c4O[C@H]2[C@@H](O)CC[C@@]3(O)[C@H]1C5 (stereo partly drawn) [Compound I-1, (5α,6α)-17-cyclopropylmethyl-17-methyl-4,5-epoxy-3,6,14-trihydroxy-morphinan bromide] | 170 nM | 110 nM | 30 nM | 0.8
2 | C[N+]1(CC2CC2)CC[C@]23c4c5ccc(O)c4O[C@H]2[C@H](O)CC[C@@]3(O)[C@H]1C5 (stereo partly drawn) [Compound I-2, (5α,6β)-17-cyclopropylmethyl-17-methyl-4,5-epoxy-3,6,14-trihydroxy-morphinan bromide] | 140 nM | 230 nM | 60 nM | 0.9
3 | C[N+]1(CC2CC2)CC[C@]23c4c5ccc(OS(=O)(=O)O)c4O[C@H]2C(=O)CC[C@@]3(O)[C@H]1C5 (stereo partly drawn) [Compound I-3, 3 sulfo-methylnaltrexone] | 10000 nM | 8300 nM | 2200 nM | 0.8
